{"source": "patent US8283373B2", "about": "“Inhibitors of cytosolic phospholipase A2” (Pfizer Inc., priority 2005, dated 2012)", "key": {"[1]": {"test_system": "Human platelet aggregation", "assay": "Platelet Function Analyzer (PFA-100) study", "assay_type": "cell-based", "details": "whole human blood, Collagen/Epinephrine cartridges, 1.25 μg/ml", "protocol": "Human platelet aggregation was studied using the platelet function analyzer (PFA-100®). Human blood was collected from volunteers who had denied taking any platelet inhibitory medications over the previous two weeks. Blood was collected in 3.2% sodium citrate Vacutainer tubes (Becton Dickinson). Tubes were inverted 5 times and the blood was transferred to 15 ml polypropylene conical tubes. […] Tubes were inverted 10 times to mix, and allowed to sit at room temperature for 10 minutes prior to run in PFA-100. The manufacturers protocol was followed for the PFA-100 using Collagen/Epinephrine cartridges (0.5% DMSO alone in whole blood gave closure times of 125+/−13.9 seconds). Maximum closure time is 300 seconds, as set by the manufacturer.\nAll compounds were efficacious in the platelet function assay."}, "[2]": {"test_system": "atherosclerosis in ApoE KO mice", "assay": "ApoE KO mouse model of atherosclerosis (20 weeks)", "assay_type": "in vivo", "details": "for decrease of atherosclerotic plaque burden at the aortic sinus vs control / atherosclerotic plaque burden at the aortic sinus: 20 weeks; for atherosclerotic plaque burden at the aortic sinus: control 519220±100694; for Atherosclerotic Lesions Along the Aorta (percent lesion area), % Decrease vs Control: ns = not significant", "protocol": "The apolipoprotein E (ApoE) knockout mouse was created by gene targeting in embryonic stem cells to disrupt the ApoE gene. ApoE is a glycoprotein that is responsible for the uptake of chylomicrons and VLDL particles by the liver, thereby preventing the accumulation of cholesterol rich remnants in the blood stream.\nSix week old male ApoE KO mice were treated with 4-{3-[1-benzhydryl-5-chloro-2-(2-{[(3,4-dichlorobenzyl)sulfonyl]amino}ethyl)-1H-indol-3-yl]propyl}benzoic acid (Compound C)."}, "serum thromboxane B2": {"test_system": "serum thromboxane B2", "assay": "Thromboxane B2 levels in the ApoE KO mouse model", "assay_type": "in vivo", "details": "ApoE KO mice, 3.3 mg/g chow for two days; vehicle 76.1±17.3", "protocol": "Blood was collected through the retro-orbital siunus and left to coagulate at 37° C. for one hour. Serum was then isolated and assayed for thromboxane B2 by ELISA.\nIn a separate experiment, ApoE KO mice were dosed with vehicle or the compound of Example 25 at 10 mg/kg by oral gavage. Blood was collected through the retro-orbital siunus and left to coagulate at 37° C. for one hour. Serum was then isolated and assayed for thromboxane B2 by ELISA."}, "[3]": {"test_system": "primary dopaminergic neurons", "assay": "MPP+ exposure in dopaminergic neurons", "assay_type": "cell-based, rat", "details": "10 μM MPP+ 60 minutes, control 100, MPP+ alone 56.6", "protocol": "Primary dopaminergic neurons were isolated from E15 rat embryos as described in Pong K., et al., (1997) J. Neurochem. 69 986-994. Briefly, the ventral mesencephalon was isolated and tissue was pooled in ice-cold phosphate buffer saline (PBS) without Ca^2+ and Mg^2+. The tissue was transferred to an enzymatic dissociation media containing 20 IU/ml papain in Earle's balanced salt solution (Worthington Biochemical, Freehold, N.J.) and incubated for 30 minutes at 37° C. After enzymatic dissociation, the papain solution was aspirated and the tissue mechanically triturated with a fire-polished Pasteur pipette in complete media [Neurobasal Medium with B-27 supplement (Gibco, Grand Island, N.Y.), penicillin/streptomycin, aphidicolin, glutamate] containing 2,000 IU/ml DNase and 10 mg/ml ovomucoid protease inhibitor. Single-cell suspensions in complete media were plated on pre-coated poly-L-ornithine/laminin 24-well plates (Becton-Dickinson, Bedford, Mass.) at a density of 5.0×10^5 cells/well. Cells were maintained for one week prior to experimentation.\nCultures were exposed to 10 μM MPP^+ for 60 minutes. After the exposure, fresh media was exchanged and fresh compound was added. Dopaminergic neuron viability was determined 24 hours later by measuring ^3H-dopamine uptake as described in Pong et al., 1997, supra."}, "[4]": {"assay": "Drug exposure in ApoE KO mice fed supplemented chow", "assay_type": "in vivo, mouse", "details": "chow supplemented at 3.3 mg/g"}, "[5]": {"test_system": "Ascaris suum antigen-induced bronchoconstriction and AHR", "details": "literature (Abraham et al. 1992; Jones et al. 1995); cited from earlier work"}}}
{"smiles": "O=C(O)c1ccc(CCCc2c(CCNS(=O)(=O)Cc3ccc(Cl)c(Cl)c3)n(C(c3ccccc3)c3ccccc3)c3ccc(Cl)cc23)cc1", "note": "[Compound C, 4-{3-[1-benzhydryl-5-chloro-2-(2-{[(3,4-dichlorobenzyl)sulfonyl]amino}ethyl)-1H-indol-3-yl]propyl}benzoic acid]", "values": [{"measurement": "PFA-100 closure time", "setting": "[1]", "value": "increased closure time"}, {"measurement": "Serum thromboxane B2 levels compared to control animals", "setting": "[2]; 1.3 mg/g and 3.3 mg/g chow, after 9 and 20 weeks of treatment", "value": "significantly decreased"}, {"measurement": "percent of total animals with Stage 3 (advanced fibrous plaque)", "setting": "[2]; 1.3 mg/g chow", "value": 33, "unit": "%"}, {"measurement": "percent of total animals with Stage 4 (stable complicated lesion)", "setting": "[2]; 1.3 mg/g chow", "value": 56, "unit": "%"}, {"measurement": "percent of total animals with Stage 5 (unstable complicated lesion)", "setting": "[2]; 1.3 mg/g chow", "value": 11, "unit": "%"}, {"measurement": "decrease of atherosclerotic plaque burden at the aortic sinus vs control", "setting": "[2]; 1.3 mg/g chow, p<0.05", "value": 32.7, "unit": "%"}, {"measurement": "atherosclerotic plaque burden at the aortic sinus", "setting": "[2]; 1.3 mg/g chow", "value": "349582±132685", "unit": "μm^2"}, {"measurement": "Serum Thromboxane B2 Levels, % Decrease vs Control", "setting": "[2]; 1.3 mg/g chow, after 9 weeks of treatment", "value": 52.5, "unit": "%"}, {"measurement": "Serum Thromboxane B2 Levels, % Decrease vs Control", "setting": "[2]; 1.3 mg/g chow, after 20 weeks of treatment", "value": 36.6, "unit": "%"}, {"measurement": "Atherosclerotic Lesions Along the Aorta (percent lesion area), % Decrease vs Control", "setting": "[2]; 1.3 mg/g chow", "value": 32.4, "unit": "ns %"}, {"measurement": "percent of total animals with Stage 1 (fibrofatty lesion)", "setting": "[2]; 3.3 mg/g chow", "value": 9, "unit": "%"}, {"measurement": "percent of total animals with Stage 2 (early fibrous plaque)", "setting": "[2]; 3.3 mg/g chow", "value": 18, "unit": "%"}, {"measurement": "percent of total animals with Stage 3 (advanced fibrous plaque)", "setting": "[2]; 3.3 mg/g chow", "value": 37, "unit": "%"}, {"measurement": "percent of total animals with Stage 4 (stable complicated lesion)", "setting": "[2]; 3.3 mg/g chow", "value": 27, "unit": "%"}, {"measurement": "percent of total animals with Stage 5 (unstable complicated lesion)", "setting": "[2]; 3.3 mg/g chow", "value": 9, "unit": "%"}, {"measurement": "decrease of atherosclerotic plaque burden at the aortic sinus vs control", "setting": "[2]; 3.3 mg/g chow, p<0.001", "value": 45.6, "unit": "%"}, {"measurement": "atherosclerotic plaque burden at the aortic sinus", "setting": "[2]; 3.3 mg/g chow", "value": "282697±146462", "unit": "μm^2"}, {"measurement": "Serum Thromboxane B2 Levels, % Decrease vs Control", "setting": "[2]; 3.3 mg/g chow, after 9 weeks of treatment", "value": 61.2, "unit": "%"}, {"measurement": "Serum Thromboxane B2 Levels, % Decrease vs Control", "setting": "[2]; 3.3 mg/g chow, after 20 weeks of treatment", "value": 49.5, "unit": "%"}, {"measurement": "Atherosclerotic Lesions Along the Aorta (percent lesion area), % Decrease vs Control", "setting": "[2]; 3.3 mg/g chow", "value": 35.2, "unit": "ns %"}, {"measurement": "atherosclerotic lesion complexity at the aortic sinus vs control", "setting": "[2]; 1.3 and 3.3 mg/g chow", "value": "reduced"}, {"measurement": "serum Thromboxane concentration", "setting": "serum thromboxane B2", "value": "33.5 ± 11.6", "unit": "ng/mL"}, {"measurement": "dopaminergic neuron viability (3H-dopamine uptake), Avg.", "setting": "[3]; 0.3 μM", "value": 68.6}, {"measurement": "dopaminergic neuron viability (3H-dopamine uptake), Avg.", "setting": "[3]; 1 μM", "value": 70.6}, {"measurement": "dopaminergic neuron viability (3H-dopamine uptake), Avg.", "setting": "[3]; 3 μM", "value": 75.9}, {"measurement": "dopaminergic neuron viability (3H-dopamine uptake), Avg.", "setting": "[3]; 10 μM", "value": 79.6}, {"measurement": "maximum drug exposure", "setting": "[4]", "value": "~500", "unit": "ng/mL"}]}
{"smiles": "CC(c1cc2ccccc2s1)N(O)C(N)=O", "note": "(stereo not shown) [zileuton]", "values": [{"measurement": "effect on antigen-induced airway responses in the sheep model", "setting": "[5]", "value": "blocks antigen-induced late airway responses, inflammation, and AHR"}]}
